Results reported in ChEMBL document CHEMBL1201862, “PubChem BioAssay data set” (2004).
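Five compound concentrations were applied to cells in 96-well plates for 48 hours; endpoints were derived by simple linear interpolation of the resulting dose-response curve. GI50 marks 50% less growth.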 Active and inactive are the calls of the source. Cut-off read from the data, not from the text of the source: active = GI50 up to about 1.1 µM and inactive = higher.

Assays:
Experiment in all cases: growth of human tumour cells (NCI), 48 h
Malme-3M = system: Malme-3M
U-251 = system: U-251
A498 = system: A498
OVCAR-5 = system: OVCAR-5
OVCAR-8 = system: OVCAR-8
SF-539 = system: SF-539
RXF 393 = system: RXF 393
LXFL 529 = system: LXFL 529
KM12 = system: KM12
HL-60 = system: HL-60
NCI-H23 = system: NCI-H23
SNB-78 = system: SNB-78
OVCAR-3 = system: OVCAR-3
CCRF-CEM = system: CCRF-CEM
ACHN = system: ACHN
TK-10 = system: TK-10
DMS-273 = system: DMS-273
MOLT-4 = system: MOLT-4
M19-MEL = system: M19-MEL
DMS-114 = system: DMS-114
SK-MEL-28 = system: SK-MEL-28
EKVX = system: EKVX
SN12C = system: SN12C
HCT-15 = system: HCT-15
COLO 205 = system: COLO 205
SF-295 = system: SF-295
HOP-18 = system: HOP-18
IGROV-1 = system: IGROV-1
UACC-257 = system: UACC-257
UO-31 = system: UO-31
LOX IMVI = system: LOX IMVI
CAKI-1 = system: CAKI-1
SK-OV-3 = system: SK-OV-3
K562 = system: K562
DLD-1 = system: DLD-1
M14 = system: M14
SNB-19 = system: SNB-19
HOP-62 = system: HOP-62
SF-268 = system: SF-268
786-0 = system: 786-0
OVCAR-4 = system: OVCAR-4
HCC 2998 = system: HCC 2998
RPMI-8226 = system: RPMI-8226
SK-MEL-2 = system: SK-MEL-2
SNB-75 = system: SNB-75
RXF 631 = system: RXF 631
HT-29 = system: HT-29
UACC-62 = system: UACC-62
NCI-H226 = system: NCI-H226
NCI-H522 = system: NCI-H522
SK-MEL-5 = system: SK-MEL-5
SW-620 = system: SW-620
HCT-116 = system: HCT-116
A549 = system: A549
SR = system: SR
KM-20L2 = system: KM-20L2
HOP-92 = system: HOP-92
NCI-H460 = system: NCI-H460

Cc1nc2c(sc(=S)n2-c2ccccc2)c2nc3ccccc3n12
GI50 (Malme-3M): > 100 µM (inactive)
GI50 (U-251): > 100 µM (inactive)
GI50 (A498): > 10 µM (inactive)
GI50 (OVCAR-5): > 100 µM (inactive)
GI50 (OVCAR-8): > 100 µM (inactive)
GI50 (SF-539): > 100 µM (inactive)
GI50 (RXF 393): > 100 µM (inactive)
GI50 (LXFL 529): > 100 µM (inactive)
GI50 (KM12): > 100 µM (inactive)
GI50 (HL-60): > 100 µM (inactive)
GI50 (NCI-H23): > 100 µM (inactive)
GI50 (SNB-78): > 100 µM (inactive)
GI50 (OVCAR-3): > 100 µM (inactive)
GI50 (CCRF-CEM): > 100 µM (inactive)
GI50 (ACHN): > 100 µM (inactive)
GI50 (TK-10): > 100 µM (inactive)
GI50 (DMS-273): > 100 µM (inactive)
GI50 (MOLT-4): > 100 µM (inactive)
GI50 (M19-MEL): > 100 µM (inactive)
GI50 (DMS-114): > 100 µM (inactive)
GI50 (SK-MEL-28): > 100 µM (inactive)
GI50 (EKVX): > 100 µM (inactive)
GI50 (SN12C): > 100 µM (inactive)
GI50 (HCT-15): > 100 µM
GI50 (COLO 205): > 100 µM (inactive)
GI50 (SF-295): > 100 µM (inactive)
GI50 (HOP-18): > 100 µM (inactive)
GI50 (IGROV-1): > 100 µM (inactive)
GI50 (UACC-257): > 100 µM (inactive)
GI50 (UO-31): > 100 µM (inactive)
GI50 (LOX IMVI): > 100 µM (inactive)
GI50 (CAKI-1): > 100 µM (inactive)
GI50 (SK-OV-3): > 100 µM (inactive)
GI50 (K562): > 100 µM (inactive)
GI50 (DLD-1): > 100 µM (inactive)
GI50 (M14): > 100 µM (inactive)
GI50 (SNB-19): > 100 µM (inactive)
GI50 (HOP-62): > 100 µM (inactive)
GI50 (SF-268): > 100 µM (inactive)
GI50 (786-0): > 100 µM (inactive)
GI50 (OVCAR-4): > 100 µM (inactive)
GI50 (HCC 2998): > 100 µM (inactive)
GI50 (RPMI-8226): > 100 µM (inactive)
GI50 (SK-MEL-2): > 100 µM (inactive)
GI50 (SNB-75): > 100 µM (inactive)
GI50 (RXF 631): > 100 µM (inactive)
GI50 (HT-29): > 100 µM (inactive)
GI50 (UACC-62): > 100 µM (inactive)
GI50 (NCI-H226): > 100 µM (inactive)
GI50 (NCI-H522): > 100 µM (inactive)

N#CCc1ccccc1/C(C#N)=C1/OC(=N)C(c2ccccc2CC#N)C1=O (centres undefined)
GI50 (SK-MEL-5): > 100 µM (inactive)
GI50 (SW-620): > 100 µM (inactive)
GI50 (HCT-116): > 100 µM (inactive)
GI50 (SF-539): > 100 µM (inactive)
GI50 (LXFL 529): 43.2 µM (inactive)
GI50 (KM12): > 100 µM (inactive)
GI50 (HL-60): > 100 µM (inactive)
GI50 (OVCAR-3): > 100 µM (inactive)
GI50 (CCRF-CEM): > 100 µM (inactive)
GI50 (ACHN): > 100 µM (inactive)
GI50 (TK-10): > 100 µM (inactive)
GI50 (DMS-273): > 100 µM (inactive)
GI50 (MOLT-4): 57.8 µM (inactive)
GI50 (M19-MEL): > 100 µM (inactive)
GI50 (SK-MEL-28): > 100 µM (inactive)
GI50 (A549): > 100 µM (inactive)
GI50 (EKVX): > 100 µM (inactive)
GI50 (SR): > 100 µM (inactive)
GI50 (SF-295): > 100 µM (inactive)
GI50 (KM-20L2): > 100 µM (inactive)
GI50 (IGROV-1): > 100 µM (inactive)
GI50 (UACC-257): > 100 µM (inactive)
GI50 (LOX IMVI): > 100 µM (inactive)
GI50 (CAKI-1): > 100 µM (inactive)
GI50 (SK-OV-3): > 100 µM (inactive)
GI50 (K562): > 100 µM (inactive)
GI50 (M14): > 100 µM (inactive)
GI50 (SF-268): > 100 µM (inactive)
GI50 (786-0): > 100 µM (inactive)
GI50 (RPMI-8226): > 100 µM (inactive)
GI50 (SNB-75): > 100 µM (inactive)
GI50 (RXF 631): > 100 µM (inactive)
GI50 (HT-29): 92 µM (inactive)
GI50 (UACC-62): 42.2 µM (inactive)
GI50 (NCI-H226): > 100 µM (inactive)
GI50 (NCI-H522): 47.4 µM (inactive)
GI50 (HOP-92): > 100 µM (inactive)

CC(=O)n1ccc2c(Cl)ncnc21
GI50 (SK-MEL-5): > 100 µM (inactive)
GI50 (SW-620): > 100 µM (inactive)
GI50 (U-251): > 100 µM (inactive)
GI50 (A498): > 100 µM (inactive)
GI50 (OVCAR-8): > 100 µM (inactive)
GI50 (HCT-116): > 100 µM (inactive)
GI50 (SF-539): > 100 µM (inactive)
GI50 (RXF 393): 0.038 µM (active)
GI50 (LXFL 529): > 100 µM (inactive)
GI50 (KM12): > 100 µM (inactive)
GI50 (HL-60): > 100 µM (inactive)
GI50 (NCI-H23): > 100 µM (inactive)
GI50 (SNB-78): > 100 µM (inactive)
GI50 (OVCAR-3): > 100 µM (inactive)
GI50 (CCRF-CEM): > 100 µM (inactive)
GI50 (ACHN): > 100 µM (inactive)
GI50 (TK-10): > 100 µM (inactive)
GI50 (DMS-273): > 100 µM (inactive)
GI50 (MOLT-4): > 100 µM (inactive)
GI50 (M19-MEL): > 100 µM (inactive)
GI50 (DMS-114): > 100 µM (inactive)
GI50 (SK-MEL-28): > 100 µM (inactive)
GI50 (A549): > 100 µM (inactive)
GI50 (EKVX): > 67.3 µM (inactive)
GI50 (SN12C): > 100 µM (inactive)
GI50 (HCT-15): > 100 µM
GI50 (COLO 205): > 100 µM (inactive)
GI50 (SR): > 100 µM (inactive)
GI50 (SF-295): > 100 µM (inactive)
GI50 (KM-20L2): > 100 µM (inactive)
GI50 (IGROV-1): > 100 µM (inactive)
GI50 (UACC-257): > 100 µM (inactive)
GI50 (NCI-H460): > 100 µM (inactive)
GI50 (LOX IMVI): > 100 µM (inactive)
GI50 (CAKI-1): > 61.4 µM (inactive)
GI50 (SK-OV-3): > 100 µM (inactive)
GI50 (K562): > 100 µM (inactive)
GI50 (DLD-1): > 100 µM (inactive)
GI50 (M14): > 100 µM (inactive)
GI50 (SNB-19): > 100 µM (inactive)
GI50 (HOP-62): > 100 µM (inactive)
GI50 (SF-268): > 100 µM (inactive)
GI50 (786-0): > 100 µM (inactive)
GI50 (HCC 2998): > 100 µM (inactive)
GI50 (RPMI-8226): > 100 µM (inactive)
GI50 (SK-MEL-2): > 100 µM (inactive)
GI50 (SNB-75): < 0.01 µM (active)
GI50 (RXF 631): > 100 µM (inactive)
GI50 (HT-29): > 100 µM (inactive)
GI50 (UACC-62): > 100 µM (inactive)
GI50 (NCI-H522): > 37.6 µM (inactive)
GI50 (HOP-92): > 100 µM (inactive)
